Test results: PubChem BioAssay (NCI)
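Values below derive from 48-hour exposures of cells grown in 96-well plates, with endpoints linearly interpolated between the two concentrations bracketing the appropriate inhibition level. Here, GI50 denotes the concentration required for 50% inhibition of growth. TGI: concentration producing complete growth inhibition.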

Assays:
Assay in all cases: NCI-60 cell line screen, 48 h
[1] = tested on: SNB-19 CNS
[2] = tested on: SK-MEL-28 melanoma
[3] = tested on: OVCAR-5 ovarian
[4] = tested on: SK-MEL-5 melanoma
[5] = tested on: UACC-257 melanoma
[6] = tested on: A498 renal
[7] = tested on: OVCAR-3 ovarian
[8] = tested on: M14 melanoma
[9] = tested on: CAKI-1 renal
[10] = tested on: XF 498 CNS
[11] = tested on: SF-539 CNS
[12] = tested on: NCI-H226 lung
[13] = tested on: SNB-78 CNS
[14] = tested on: SN12C renal
[15] = tested on: KM12 colon
[16] = tested on: HCT-15 colon
[17] = tested on: SF-268 CNS
[18] = tested on: HOP-62 NSCLC
[19] = tested on: SNB-75 CNS
[20] = tested on: OVCAR-8 ovarian
[21] = tested on: NCI-H460 lung
[22] = tested on: K-562 leukemia
[23] = tested on: EKVX NSCLC
[24] = tested on: CCRF-CEM leukemia
[25] = tested on: M19-MEL melanoma
[26] = tested on: ACHN renal
[27] = tested on: SR leukemia
[28] = tested on: MALME-3M melanoma
[29] = tested on: IGROV1 ovarian
[30] = tested on: SF-295 CNS
[31] = tested on: OVCAR-4 ovarian
[32] = tested on: UACC-62 melanoma
[33] = tested on: LOX IMVI melanoma
[34] = tested on: HCT-116 colon
[35] = tested on: RXF 393 renal
[36] = tested on: HCC-2998 colon
[37] = tested on: A549 NSCLC
[38] = tested on: SK-OV-3 ovarian
[39] = tested on: DLD-1 colon
[40] = tested on: KM20L2 colon
[41] = tested on: HT29 colon
[42] = tested on: UO-31 renal
[43] = tested on: NCI-H23 lung
[44] = tested on: HOP-92 NSCLC
[45] = tested on: MOLT-4 leukemia
[46] = tested on: HOP-18 NSCLC
[47] = tested on: TK-10 renal
[48] = tested on: SW-620 colon
[49] = tested on: SK-MEL-2 melanoma
[50] = tested on: 786-0 renal
[51] = tested on: NCI-H522 lung
[52] = tested on: DMS 114 small cell lung
[53] = tested on: HL-60(TB) leukemia
[54] = tested on: RPMI-8226 leukemia
[55] = tested on: U251 CNS

O=C1C(C(Nc2ccccc2)c2ccccc2)=C([O-])c2ccccc21.O=C1C(C(Nc2ccccc2)c2ccccc2)=C([O-])c2ccccc21.[Ni+2] (configuration not stated)
GI50 [1]: 25.6 µM | TGI [1]: 56.7 µM | GI50 [2]: 9.95 µM | TGI [2]: > 100 µM | GI50 [3]: 3.55 µM | TGI [3]: 49.5 µM | GI50 [4]: 1340 nM | TGI [4]: 7.45 µM | GI50 [5]: 42.3 µM | TGI [5]: > 100 µM | GI50 [6]: 7.57 µM | TGI [6]: > 100 µM | GI50 [7]: 22.2 µM | TGI [7]: 66.4 µM | GI50 [8]: 7.99 µM | TGI [8]: > 100 µM | GI50 [9]: 28.8 µM | TGI [9]: > 100 µM | GI50 [10]: 4.9 µM | TGI [10]: 54.8 µM | GI50 [11]: 3.66 µM | TGI [11]: > 100 µM | GI50 [12]: 17.9 µM | TGI [12]: > 100 µM | GI50 [13]: 7.6 µM | TGI [13]: > 100 µM | GI50 [14]: 4.56 µM | TGI [14]: > 100 µM | GI50 [15]: 4.01 µM | TGI [15]: > 100 µM | GI50 [16]: 4.09 µM | TGI [16]: > 100 µM | GI50 [17]: 3.35 µM | TGI [17]: > 100 µM | GI50 [18]: 14.2 µM | TGI [18]: > 100 µM | GI50 [19]: 6.34 µM | TGI [19]: 94.7 µM | GI50 [20]: 4.43 µM | TGI [20]: > 100 µM | GI50 [21]: 4.46 µM | TGI [21]: > 100 µM | GI50 [22]: 3.59 µM | TGI [22]: > 100 µM | GI50 [23]: 3.33 µM | TGI [23]: 9.82 µM | GI50 [24]: 3.96 µM | TGI [24]: > 100 µM | GI50 [25]: 11 µM | TGI [25]: > 100 µM | GI50 [26]: 7.81 µM | TGI [26]: > 100 µM | GI50 [27]: 3.72 µM | TGI [27]: > 100 µM | GI50 [28]: 7.91 µM | TGI [28]: > 100 µM | GI50 [29]: 4.9 µM | TGI [29]: > 100 µM | GI50 [30]: 3.69 µM | TGI [30]: > 100 µM | GI50 [31]: 16.5 µM | TGI [31]: > 100 µM | GI50 [32]: 6.59 µM | TGI [32]: 51 µM | GI50 [33]: 5.81 µM | TGI [33]: > 100 µM | GI50 [34]: 3.05 µM | TGI [34]: > 100 µM | GI50 [35]: 4.9 µM | TGI [35]: 85 µM | GI50 [36]: 4.41 µM | TGI [36]: > 100 µM | GI50 [37]: 4.17 µM | TGI [37]: > 100 µM | GI50 [38]: 2660 nM | TGI [38]: 6.78 µM | GI50 [39]: 4.2 µM | TGI [39]: > 100 µM | GI50 [40]: 24.4 µM | TGI [40]: 77.7 µM | GI50 [41]: 4 µM | TGI [41]: > 100 µM | GI50 [42]: 11.5 µM | TGI [42]: > 100 µM | GI50 [43]: 5.23 µM | TGI [43]: > 100 µM | GI50 [44]: 6.14 µM | TGI [44]: 55.6 µM | GI50 [45]: 3.71 µM | TGI [45]: > 100 µM | GI50 [46]: 31.1 µM | TGI [46]: > 100 µM | GI50 [47]: 12.8 µM | TGI [47]: > 100 µM | GI50 [48]: 5.3 µM | TGI [48]: > 100 µM | GI50 [49]: 3.32 µM | TGI [49]: 15.2 µM

N#C/C(=C/c1cccc2ccccc12)C(=O)c1ccccc1
TGI [1]: 41.6 µM | TGI [2]: 30 µM | TGI [3]: 50.1 µM | TGI [4]: > 10 µM | TGI [5]: > 10 µM | TGI [6]: 55.3 µM | TGI [7]: > 100 µM | TGI [8]: 30.6 µM | TGI [9]: > 100 µM | TGI [10]: 39.3 µM | TGI [11]: 34.9 µM | TGI [50]: 30.3 µM | TGI [12]: 47.9 µM | TGI [13]: > 100 µM | TGI [14]: 85.6 µM | TGI [15]: 43.2 µM | TGI [51]: 54.6 µM | TGI [16]: 39.3 µM | TGI [18]: 41.1 µM | TGI [20]: > 100 µM | TGI [21]: 78.2 µM | TGI [22]: > 10 µM | TGI [23]: > 10 µM | TGI [24]: 39 µM | TGI [25]: 86.6 µM | TGI [26]: > 10 µM | TGI [27]: 88.3 µM | TGI [52]: > 100 µM | TGI [28]: 47.6 µM | TGI [53]: 46.9 µM | TGI [29]: 54.8 µM | TGI [30]: 44.4 µM | TGI [31]: > 100 µM | TGI [32]: 38.4 µM | TGI [33]: 39.3 µM | TGI [34]: 34.4 µM | TGI [36]: 49.2 µM | TGI [37]: > 10 µM | TGI [38]: > 100 µM | TGI [54]: 69.6 µM | TGI [40]: 37.1 µM | TGI [55]: 37.9 µM | TGI [41]: > 100 µM | TGI [42]: 35.9 µM | TGI [43]: 32.2 µM | TGI [45]: 38.2 µM | TGI [47]: > 100 µM | TGI [48]: 32 µM | TGI [49]: 41.6 µM
